# Experimental data taken from ChEMBL document CHEMBL6120951, “Viral Protein Dimerization Quality Control: A Design Strategy for a Potential Viral Inhibitor” (J Med Chem, 2024).
# Experiments:
# [1] = system: Jurkat; assay: Cytotoxicity against human Jurkat cells assessed as reduction in cell growth incubated for 24 hrs by CellTiter-Glo luminescent cell viability assay; format: functional
# [2] = system: SARS-CoV-2; assay: Antiviral activity against SARS-CoV-2 infected in African green monkey Vero cells assessed as reduction in viral replication; format: functional, organism-based; settings: Severe acute respiratory syndrome coronavirus 2, Vero
# [3] = system: MT4; assay: Cytotoxicity against human MT4 cells assessed as reduction in cell viability incubated for 72 hrs by cell-titer glo assay; format: functional
# [4] = system: Human immunodeficiency virus 1; assay: Antiviral activity against HIV-1 3B infected in human MT4 cells assessed as reduction in viral replication; format: functional, organism-based; settings: Human immunodeficiency virus 1, 3B
# [5] = Cytotoxicity against African green monkey Vero cells assessed as reduction in cell viability after 72 hrs by MTT assay; format: toxicity, cell-based; settings: chlorocebus sabaeus
# [6] = Inhibition of SARS-CoV-2 MPro using Dabcyl-KTSAVLQSGFRKME-Edans as substrate preincubated for 15 mins followed by substrate addition measured after 30 mins by FRET assay; parameters: species or system Severe acute respiratory syndrome coronavirus 2
compound,measurement,setting,value
Cc1[nH]c2ccccc2c1CC(=O)N[C@@H](Cc1ccccc1)C(=O)N(C)c1ccccc1,CC50,[1],> 47000 nM
CCOc1cc2ncc(C#N)c(Nc3ccc(F)c(Cl)c3)c2cc1NC(=O)/C=C/CN(C)C [PELITINIB],EC50,[2],1250 nM
O=C(Nc1cc(F)c(F)c(F)c1)c1ccc(F)c(S(=O)(=O)N2CCC(O)CC2)c1,CC50,[3],14500 nM
CC(=O)Nc1ccc(-c2cc(C)c(=O)n(Cc3ccc(Cl)cc3)n2)cc1,CC50,[3],> 100000 nM
CC(C)Cc1sc(-c2nccs2)nc1C(=O)NCc1ccc(F)cc1,CC50,[3],50400 nM
N#Cc1ccc(Nc2nc(-c3cccnc3)nc3ccccc23)cc1,CC50,[1],> 10000 nM
same,EC50,[4],4000 nM
N#Cc1ccc(C(=O)Nc2sc3c(c2C(=O)Nc2ccccc2O)CCCCC3)cc1,EC50,[2],380 nM
same,CC50 at 72 h,[5],> 250000 nM
CC(C)(C#Cc1ccc(-c2ccc(Cl)c3c(NS(C)(=O)=O)nn(CC(F)(F)F)c23)c([C@H](Cc2cc(F)cc(F)c2)NC(=O)Cn2nc(C(F)(F)F)c3c2C(F)(F)[C@@H]2C[C@H]32)n1)S(C)(=O)=O,EC50,[4],0.105 nM
CC1=C(C(C2=C(C)c3ccccc3C2=O)c2ccc(C)cc2)C(=O)CC(c2ccccc2)C1 (configuration not stated),EC50,[2],1820 nM
O=C(CNC(=O)c1ccc(F)cc1)Nc1ccc(Cl)nc1Cl,CC50,[3],144000 nM
CC(C)OCCCNC(=O)c1csc(Nc2cc(F)c(Cl)c(F)c2)n1,EC50,[2],110 nM
same,CC50 at 72 h,[5],> 100000 nM
O=C(Nc1cccc(Cl)c1)C1C2CCCCC21 (configuration not stated),CC50,[3],> 100000 nM
O=C(O)c1cc(-c2ccc(-c3ccccc3)cc2)nc2ccccc12,CC50 at 72 h,[5],> 50000 nM
same,IC50,[6],480 nM
O=C1NC(c2ccc(O)cc2)C2C(c3ccccc3)=NNC12 (configuration not stated),CC50,[1],> 43000 nM
same,EC50,[4],1800 nM
CCN1C(=O)C(c2cc(O)cc(-c3cccnc3)c2)C(=O)N(c2ccccc2)c2cc(C(F)(F)F)ccc21 (configuration not stated),EC50,[4],480 nM
O=C(NC1CCNCC1)c1n[nH]cc1NC(=O)c1c(Cl)cccc1Cl [AT-7519],EC50,[2],25000 nM
CCc1cc(-c2ccc(C(F)(F)F)o2)n(-c2ccc3c(c2)nc(-c2ccccc2O)n3Cc2ccc(=O)[nH]c2)n1,EC50,[4],110 nM
